Data set [1] concerns the target T1, Recombinant human M3 receptor (Homo sapiens, UniProt P20309).
T1 construct: expressed in transfected cells; host or cells: CHO-K1 cells (membranes prepared from them)
Briefly: Muscarinic Receptor Radioligand Binding Assay ([3H]-NMS, SPA). As for the experimental part:
The inhibitory effects of compounds of the muscarinic antagonists were determined by a Muscarinic Receptor Radioligand Binding Assay.
Recombinant human M3 receptor was expressed in CHO-K1 cells. Cell membranes were prepared and binding of [3H]-N-methyl scopolamine ([3H]-NMS) and compounds was assessed by a scintillation proximity assay (SPA). The incubation time was 16 hours at ambient temperature in the presence of 1% (v/v) DMSO. The assay was performed in white 96 well clear-bottomed NBS plates (Corning). Prior to the assay, the CHO cell membranes containing M3 receptor were coated onto SPA WGA (Wheat germ agglutinin) beads (GE Healthcare). Non specific binding was determined in the presence of 1 μM Atropine.
Radioactivity was measured on a Microbeta scintillation counter (PerkinElmer) using a 3H protocol with a 2 minutes per well read time. […] Concentration dependent inhibition of [3H]-NMS binding by compounds was expressed as pIC50.

Data set [2] in a line: Gravimetric Vapour Sorption (GVS) of crystalline forms. It counts as physicochemical. Particulars: at 80% RH, crystalline material. The procedure: Gravimetric Vapour Sorption (GVS) profiles were measured using a Surface Measurements Systems Dynamic Vapour Sorption DVS-1 or a DVS Advantage instrument. The solid sample ca. 1-5 mg was placed into a glass vessel and the weight of the sample was recorded during a dual cycle step method (40 to 90 to 0 to 90 to 0% relative humidity (RH), in steps of 10% RH).

Data set [3] in a line: Dynamic vapour sorption (DVS) analysis of crystalline form. The data set is classed as physicochemical. The settings on record: at 80% RH, 25° C., crystalline material. As for the experimental part:
Dynamic vapour sorption (DVS) analysis was performed on a Surface Measurement systems (SMS) DVS-Intrinsic moisture sorption analyser. The instrument was controlled by SMS Analysis Suite software (DVS-Intrinsic Control v1.0.0.30). Analysis of the data was performed using Microsoft Excel 2007 together DVS Standard Analysis Suite (v6.0.0.7). Sample temperature was maintained at 25° C. and the sample humidity was obtained by mixing streams of wet and dry nitrogen at a total flow rate of 200 mlmin^−1. The relative humidity was measured using a calibrated Rotronic probe (dynamic range 1-100% Relative Humidity (RH)) located close to the sample. The weight change of the sample as a function of % RH was constantly monitored by the microbalance (accuracy ±0.005 mg). Typically a PXRD would be run prior to analysis. 20 mg of sample was then placed in a tared stainless steel mesh basket under ambient conditions. The sample was loaded and unloaded at 40% RH and 25° C. (typical room conditions) and the sample subjected to a graduated DVS regime over 2 cycles using the parameters shown in Table 1.

The mark [4] stands for this setting: CHO-K1 cell membranes, [3H]-NMS, 16 hours at ambient temperature, 1% DMSO, read-out: Ki in the M3 binding assay.

Where two headings read alike, the source gives them in different places.

T1 sequence (P20309 whole entry): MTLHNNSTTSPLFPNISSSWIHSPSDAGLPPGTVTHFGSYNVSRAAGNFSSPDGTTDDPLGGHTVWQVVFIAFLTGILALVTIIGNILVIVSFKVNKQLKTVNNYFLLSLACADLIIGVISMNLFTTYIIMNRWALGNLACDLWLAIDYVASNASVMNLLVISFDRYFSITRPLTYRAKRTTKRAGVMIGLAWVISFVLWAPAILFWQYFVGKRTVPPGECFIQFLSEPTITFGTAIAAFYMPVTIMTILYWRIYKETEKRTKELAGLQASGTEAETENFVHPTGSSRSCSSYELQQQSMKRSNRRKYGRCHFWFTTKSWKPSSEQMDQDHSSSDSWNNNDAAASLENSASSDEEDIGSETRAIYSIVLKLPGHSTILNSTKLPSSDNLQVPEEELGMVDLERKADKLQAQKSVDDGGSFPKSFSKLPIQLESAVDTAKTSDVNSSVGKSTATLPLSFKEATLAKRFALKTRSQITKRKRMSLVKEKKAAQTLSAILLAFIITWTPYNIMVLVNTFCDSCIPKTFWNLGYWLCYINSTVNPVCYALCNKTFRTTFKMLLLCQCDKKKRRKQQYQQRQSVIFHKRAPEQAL

Usually Ki stands for the dissociation constant of the complex between target and ligand, obtained from inhibition or displacement. Take `Cc1ccc(O[C@H]2C[N+]3(Cc4cc(C(O)(c5ccccc5)c5ccccc5)no4)CCC2CC3)cc1F` [Example 7, (R)-3-(3-Fluoro-4-methyl-phenoxy)-1-[3-(hydroxy-diphenyl-methyl)-isoxazol-5-ylmethyl]-1-azonia-bicyclo[2.2.2]octane bromide]: the Ki in data set [1] (setting [4]) came out at 0.4 nM.

As for `O[C@](c1ccccc1)(c1cc(C[N+]23CCC(CC2)[C@@H](Oc2cccc(F)c2)C3)on1)C1CCCCC1` [Example 3, (R)-1-[3-((R)-Cyclohexyl-hydroxy-phenyl-methyl)-isoxazol-5-ylmethyl]-3-(3-fluoro-phenoxy)-1-azonia-bicyclo[2.2.2]octane chloride], in data set [1], the inhibitory constant (Ki) worked out at 0.66 nM. For the compound `O[C@](c1ccccc1)(c1cc(C[N+]23CCC(CC2)[C@@H](Oc2cccc(F)c2)C3)on1)C1CCCCC1` [Example 8, (R)-1-[3-((R)-Cyclohexyl-hydroxy-phenyl-methyl)-isoxazol-5-ylmethyl]-3-(3-fluoro-phenoxy)-1-azonia-bicyclo[2.2.2]octane 2-hydroxy-ethanesulfonate], the GVS mass increase in data set [2] is 0.15%. With `O[C@](c1ccccc1)(c1nnc(C[N+]23CCC(CC2)[C@@H](Oc2ccc(F)cc2)C3)o1)C1CCCCC1` [Example 5, (R)-1-[5-((R)-Cyclohexyl-hydroxy-phenyl-methyl)-[1,3,4]oxadiazol-2-ylmethyl]-3-(4-fluoro-phenoxy)-1-azonia-bicyclo[2.2.2]octane bromide], the Ki in data set [1] (setting [4]) came to 0.7 nM. `O=S(=O)([O-])c1ccccc1.O[C@](c1ccccc1)(c1cc(C[N+]23CCC(CC2)[C@@H](Oc2ccc(F)cc2)C3)on1)C1CCCCC1` [Example 2, (R)-1-[3-((R)-Cyclohexyl-hydroxy-phenyl-methyl)-isoxazol-5-ylmethyl]-3-(4-fluoro-phenoxy)-1-azonia-bicyclo[2.2.2]octane benzenesulfonate]: the DVS weight increase in data set [3] is 0.2 % w/w.

As for `O[C@](c1ccccc1)(c1cc(C[N+]23CCC(CC2)[C@@H](Oc2ccc(F)cc2)C3)on1)C1CCCCC1` [Example 1, (R)-1-[3-((R)-Cyclohexyl-hydroxy-phenyl-methyl)-isoxazol-5-ylmethyl]-3-(4-fluoro-phenoxy)-1-azonia-bicyclo[2.2.2]octane chloride], the Ki in data set [1] (setting [4]) stood at 0.8 nM. With `OC(c1ccccc1)(c1ccccc1)c1cc(C[N+]23CCC(CC2)[C@@H](Sc2cccc(F)c2)C3)on1` [Example 6, (R)-3-(3-Fluoro-phenylsulfanyl)-1-[3-(hydroxy-diphenyl-methyl)-isoxazol-5-ylmethyl]-1-azonia-bicyclo[2.2.2]octane bromide], the Ki in data set [1] (setting [4]) turned out to be 0.15 nM.

Source of the values: patent US20110207770A1, “PHARMACEUTICAL PRODUCT COMPRISING A MUSCARINIC RECEPTOR ANTAGONIST AND A SECOND ACTIVE INGREDIENT” (ASTRAZENECA AB, priority 2008, published 2011).
